The record followed here is PMC6697583 (Cancer research, 2019).

Molecules are shown by their SMILES.

This assay concerns the target T1, heme oxygenase 1 (HO-1) (Homo sapiens, UniProt P09601).
T1 sequence (P09601 1-288): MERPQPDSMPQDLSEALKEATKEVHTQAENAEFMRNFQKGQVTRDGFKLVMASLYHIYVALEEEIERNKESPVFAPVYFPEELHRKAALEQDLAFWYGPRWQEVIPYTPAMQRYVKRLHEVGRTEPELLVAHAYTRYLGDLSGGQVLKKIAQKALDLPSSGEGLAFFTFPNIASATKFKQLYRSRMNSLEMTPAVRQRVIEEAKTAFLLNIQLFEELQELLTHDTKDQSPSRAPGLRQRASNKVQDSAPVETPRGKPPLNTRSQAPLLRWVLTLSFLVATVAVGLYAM
Briefly: bilirubin fluorescence assay on purified HO-1. Format: biochemical.

In turn, `Cc1c(O)ccc2c1OC[C@@H](c1ccc(O)cc1)[C@H]2c1ccc(O)cc1` [ME-344, (3R,4S)-3,4-bis(4-hydroxyphenyl)-8-methyl-3,4-dihydro-2H-chromen-7-ol] displayed an IC50 of 17.6 nM.
